According to patent US9625449B2, “Determining the bioavailability of zinc (II) ions” (Colgate-Palmolive Company, priority 2014, dated 2017):

Key:
Type in all cases: physicochemical
[1] = Reaction of zincon with metal ions (colour change): Co2+; settings: solution with Co^2+
Excerpt: (§1) Certain dyes used to detect zinc ions also react with other metal ions. For example, Eriochrome Black T reacts with Mg^2+ and Ca^2+ ions, which are commonly encountered in biological tissues. Sources of calcium ions are frequently included in oral care compositions.

[2] = Absorbance of zincon as function of pH (detection of zinc)
Excerpt: It has been reported in the literature that the working pH range for zincon is pH 8.5 to 9.5 (Yoe and Rush, 1952. “A new colorimetric reagent for zinc”, Analytica Chimica Acta, vol. 6, pp 526 to 527).

[3] = Reaction of zincon with metal ions (colour change): Ca2+; settings: solution with Ca^2+
Excerpt: as §1

[4] = Reaction of zincon with metal ions (colour change): Fe2+; settings: solution with Fe^2+
Excerpt: as §1

[5] = Reaction of zincon with metal ions (colour change): Mg2+; settings: solution with Mg^2+
Excerpt: as §1

[6] = Reaction of zincon with metal ions (colour change): Zn2+; settings: solution with Zn^2+
Excerpt: as §1

[7] = Reaction of zincon with metal ions (colour change): Cu2+; settings: solution with Cu^2+
Excerpt: as §1

Which “colour change of zincon” value [1] does the source give for O=C(O)c1ccccc1N=NC(=NNc1cc(S(=O)(=O)[O-])ccc1O)c1ccccc1.[Na+] [zincon, o-[α-(2-hydroxy-5-sulfophenylazo)-benzylidene hydrazino]benzoic acid] here?
The value was “sky blue solution”.

What about the “Absorbance of sample at 610 nm” value ([2]; pH 7.0) of the same compound?
The value was 0.233.

What about the “Absorbance of sample at 610 nm” value ([2]; pH 7.5) of the same compound?
The value was 0.232.

And the “Absorbance of sample at 610 nm” value ([2]; pH 8.0)?
Its value is 0.245.

What about the “Absorbance of sample at 610 nm” value ([2]; pH 8.5) of the same compound?
The value was 0.251.

And the “Absorbance of sample at 610 nm” value ([2]; pH 9.5)?
Its value is 0.252.

What about the “colour change of zincon” value [3] of the same compound?
Its value is “did not undergo a colour change”.

What about the “colour change of zincon” value [4] of the same compound?
The value was “green solution”.

What about the “colour change of zincon” value [5] of the same compound?
Its value is “did not undergo a colour change”.

What about the “colour change of zincon” value [6] of the same compound?
Its value is “deep blue complex”.

And the “colour change of zincon” value [7]?
The value was “difficult to distinguish from that of Zn^2+”.
